# System: female CD1 mice
# Test: Indomethacin-induced mortality in mice (model dose)
# Format: in vivo
# Settings: indomethacin 7 mg/kg s.c. bid for two days following overnight fasting; 7-8 week old female CD1 mice; saline-treated control animals
# Protocol: Indomethacin(1-[p-chlorobenzoyl]-5-methoxy-2-methylindole-3-acetic acic) (Sigma Chemical Co., St Louis MO, lot 74H1212), stock solution was prepared and aliquoted 1 hr before the first injection. The mice were weighed, and then fasted overnight, and given food one hour prior to the first indomethacin injection. Mice were not fasted for the second indomethacin injection. Indomethacin (14.5 mg) was weighed out using a Mettler AE166 scale and dissolved in 1 mL anhydrous ethyl alcohol. The solution was warmed at 37° C for 5 minutes and thoroughly vortexed every minute until fully dissolved. 998.1 uL of stock indomethacin solution was diluted in 41 ml 5% NaHCO3 pH 7.3. […] Indomethacin used in the second injection was stored at -20° C overnight and allowed to thaw at room temperature prior to injection. Mice were injected at the same time (10:00 AM) on both days approximately 1 hr after receiving h[Gly^2]-GLP-2. Animals not receiving indomethacin were administered vehicle alone (250 µl anhydrous ethyl alcohol in 10.5 mL NaHCO3 pH 7.3 - a final injection volume of 0.5 ml was given daily over 2 days). Animals were sacrificed in a CO2 chamber 14 days following the administration of either PBS or h[Gly^2]-GLP-2.
# Pilot experiments were performed to determine an indomethacin dose that reproducibly produced ∼ 50% mortality in mice. […]
smiles,measurement,value
"COc1ccc2c(c1)c(CC(=O)O)c(C)n2C(=O)c1ccc(Cl)cc1 [indomethacin, 1-[p-chlorobenzoyl]-5-methoxy-2-methylindole-3-acetic acic]",mortality,50%

# Source: patent EP0981362B1, “USE OF GLP-2 AGONISTS ENHANCING F[…] THE UPPER GASTROINTESTINAL TRACT” (1149336 ONTARIO INC., priority 1997, dated 1998)
